Measurements taken from patent publication US20250270170A1, “2,3-DIMETHOXY-5-METHYL-1,4-BENZOQUINONE ALKYL ALCOHOL DERIVATIVE AND USE THEREOF” (BEIJING ANJIANXI BIO-MEDICAL TECHNOLOGY CO., LTD., priority 2021, published 2025).
Marks after values point to notes of the source that are not given here.

How the values were obtained:
A549 cells = assay: Flow cytometry for cell cycle detection, A549; assay type: cell-based, human
Protocol: (1) Cells were inoculated in a 6-well plate. When about 50% of the cells were adherent and fused, the compound of formula (I) at a concentration of 0 μM, 10 μM, 30 μM, and 90 μM were added, respectively. The plate was placed in an incubator at 37° C. with 5% CO2 to continue culturing, and three time points were set, which were 24 h, 48 h and 72 h, respectively.
(2) After reaching the designated time point, the cell culture plate was taken out from the incubator, and placed in a biological safety cabinet. A 4 ml centrifuge tube was taken and marked. The supernatant in each well was pipetted out and added to the corresponding 4 ml centrifuge tube. The cells were gently washed with PBS, and the PBS was added to the corresponding centrifuge tube. An appropriate amount of trypsin was added to each well to digest the cells. When the cells were digested to a moderate degree, the old culture medium from the centrifuge tube was added to the corresponding well. The cells were gently pipetted with apipette to form a single-cell suspension, which was pipetted back into the original centrifuge tube. The tube was immediately centrifuged at 1500 rpm for 5 minutes. Then, the supernatant was discarded and the precipitate was retained.
(3) 2 ml of pre-chilled PBS was added to the centrifuge tube, and centrifuged again at 1500 rpm for 5 minutes. The supernatant was discarded, and the cell debris was removed.
(4) 1 ml of 75% ethanol was added while pipetting the cells, to make the cells appear as single as possible. Then, the cells were fixed at 4° C. overnight or stored at −20° C. for long-term storage (can be stored for 1 week).
(5) The fixed cells were taken out, and centrifuged at 1000 rpm for 5 minutes. The ethanol was discarded, and pre-chilled PBS was added to wash the cells. Then, the cells were centrifuged at 1000 rpm for 5 min to remove the residual ethanol on the cells.
(6) A cell cycle detection kit from Wuhan Promoter Biology Co., Ltd. was used. 100 μl of RNaseA was added, and incubated in a 37° C. water bath for 30 minutes.
(7) 400 μl of PI was added and mixed well, and incubated at 4° C. in dark for 30 minutes.
(8) The cell cycle was detected by upflow cytometry.

[1] = Example 7: body weight of NCI-N87 tumor-bearing nude mice; assay type: in vivo; details: DDP 4/2/1/4 mg/kg IP
[2] = test system: human non-small cell lung cancer A549 transplanted tumor; assay: Example 9: tumor growth in A549 transplanted tumor model; assay type: in vivo, nude mice
Text: Human non-small cell lung cancer cells A549 were obtained from the Cell Bank of the Type Culture Collection Committee of Chinese Academy of Sciences (CAS, cryopreserved in liquid nitrogen in this assay). […] On D1 of the assay, the A549 cells in the logarithmic growth phase were collected, counted and resuspended in PBS, and the cell concentration was adjusted to 8×10^7 cells/mL. The cells were pipetted with a pipette to disperse them evenly, and the cells were put into a 50-mL centrifuge tube, which was placed in an ice box. A 1-mL syringe was used to draw the cell suspension, which was injected subcutaneously into the axilla of the front right limb of a nude mouse. Each animal was inoculated with 100 μL (8×10^6 cells/mouse) to establish an A549 transplanted tumor model in nude mice. After the inoculation, the animal status and tumor growth were regularly observed. On D18, the tumor diameter was measured using an electronic vernier caliper. The data were input into an Excel spreadsheet to calculate the tumor volume. Tumor-bearing mice in good health and with similar tumor volumes (101 to 156 mm^3) were selected and divided into groups using randomized block method. After the start of the assay, the tumor diameter was measured regularly, the tumor volume was calculated, and the animal body weight was also weighed and recorded. On the last day of the assay, CO2 inhalation anesthesia was used on the animals 1 hour after the administration (R01). Blood was collected through the heart, and a part of the whole blood was added with EDTA-K2 for anticoagulation. The plasma was separated by centrifugation at 4° C. and 1500 g for 10 minutes. The plasma was collected, and stored in a −40° C. to −20° C. freezer (if necessary, it can be used for the determination of the plasma drug concentration). No anticoagulant was added to the other part of the whole blood, and the serum was separated by centrifugation after the blood coagulated, which was used for the detection of blood urea nitrogen. After the blood collection, the tumor tissue was collected, weighed and photographed. Then, the tumor was divided into two parts, quickly cryopreserved by liquid nitrogen, and transferred to a −90° C. to −60° C. freezer for storage. […] [table]

[3] = D21, DDP 5/7/7/7 mg/kg i.p. QW×4
[4] = D25, DDP 5/7/7/7 mg/kg i.p. QW×4
[5] = D28, DDP 5/7/7/7 mg/kg i.p. QW×4
[6] = D32, DDP 5/7/7/7 mg/kg i.p. QW×4
[7] = D35, DDP 5/7/7/7 mg/kg i.p. QW×4
[8] = D39, DDP 5/7/7/7 mg/kg i.p. QW×4
[9] = D42, DDP 5/7/7/7 mg/kg i.p. QW×4
[10] = D46, DDP 5/7/7/7 mg/kg i.p. QW×4

COC1=C(OC)C(=O)C(CCCCCCCCCCOC(=O)Cc2c(C)n(C(=O)c3ccc(Cl)cc3)c3ccc(OC)cc23)=C(C)C1=O [compound of formula (I)]
proportion of S phase of cells (A549 cells; 10 μM, 24 h): 22.94% | proportion of S phase of cells (A549 cells; 10 μM, 48 h): 24.73% | proportion of S phase of cells (A549 cells; 10 μM, 72 h): 19.77% | proportion of S phase of cells (A549 cells; 30 μM, 24 h): 12.52% | proportion of S phase of cells (A549 cells; 30 μM, 48 h): 15.96% | proportion of S phase of cells (A549 cells; 30 μM, 72 h): 10.63% | proportion of S phase of cells (A549 cells; 90 μM, 24 h): 3.92% | proportion of S phase of cells (A549 cells; 90 μM, 48 h): 4.37% | proportion of S phase of cells (A549 cells; 90 μM, 72 h): 5.42%

N.N.[Cl][Pt][Cl] [DDP, cisplatin]
Animal body weight ([1]; D12): 18.6 ± 0.5 g | Animal body weight ([1]; D16): 17.9 ± 0.3 g | body weight loss rate ([1]; D16): 3.9% | Animal body weight ([1]; D19): 18.0 ± 0.4 g | body weight loss rate ([1]; D19): 3.3% | Animal body weight ([1]; D23): 16.9 ± 0.5 g | body weight loss rate ([1]; D23): 9.2% | Animal body weight ([1]; D26): 17.9 ± 0.5 g | body weight loss rate ([1]; D26): 3.4% | Animal body weight ([1]; D30): 17.5 ± 0.3 g | body weight loss rate ([1]; D30): 6.0% | Animal body weight ([1]; D33): 18.6 ± 0.4 g | body weight loss rate ([1]; D33): 0.090% | Animal body weight ([1]; D37): 18.9 ± 0.4 g | body weight loss rate ([1]; D37): −2.0% | Animal body weight ([1]; D40): 19.2 ± 0.4 g | body weight loss rate ([1]; D40): −3.1% | Animal body weight ([1]; D44): 18.3 ± 0.3 g | body weight loss rate ([1]; D44): 1.4% | Mean tumor volume ([2]; D18, DDP 4 mg/kg i.p. QW×4): 127 ± 6 mm^3 | Mean tumor volume ([2]; D18, DDP 5/7/7/7 mg/kg i.p. QW×4): 130 ± 5 mm^3 | Mean tumor volume ([2]; D21, DDP 4 mg/kg i.p. QW×4): 210 ± 10 mm^3 | tumor growth inhibition rate (TGI) ([2]; D21, DDP 4 mg/kg i.p. QW×4): (−1.0%) | Mean tumor volume [2, 3]: 208 ± 11 mm^3 | tumor growth inhibition rate (TGI) [2, 3]: (4.7%) | Mean tumor volume ([2]; D25, DDP 4 mg/kg i.p. QW×4): 297 ± 20** mm^3 | tumor growth inhibition rate (TGI) ([2]; D25, DDP 4 mg/kg i.p. QW×4): (37%) | Mean tumor volume [2, 4]: 308 ± 23** mm^3 | tumor growth inhibition rate (TGI) [2, 4]: (34%) | Mean tumor volume ([2]; D28, DDP 4 mg/kg i.p. QW×4): 418 ± 28** mm^3 | tumor growth inhibition rate (TGI) ([2]; D28, DDP 4 mg/kg i.p. QW×4): (29%) | Mean tumor volume [2, 5]: 428 ± 30** mm^3 | tumor growth inhibition rate (TGI) [2, 5]: (27%) | Mean tumor volume ([2]; D32, DDP 4 mg/kg i.p. QW×4): 561 ± 35** mm^3 | tumor growth inhibition rate (TGI) ([2]; D32, DDP 4 mg/kg i.p. QW×4): (27%) | Mean tumor volume [2, 6]: 562 ± 41** mm^3 | tumor growth inhibition rate (TGI) [2, 6]: (28%) | Mean tumor volume ([2]; D35, DDP 4 mg/kg i.p. QW×4): 670 ± 56** mm^3 | tumor growth inhibition rate (TGI) ([2]; D35, DDP 4 mg/kg i.p. QW×4): (26%) | Mean tumor volume [2, 7]: 696 ± 52* mm^3 | tumor growth inhibition rate (TGI) [2, 7]: (22%) | Mean tumor volume ([2]; D39, DDP 4 mg/kg i.p. QW×4): 914 ± 89** mm^3 | tumor growth inhibition rate (TGI) ([2]; D39, DDP 4 mg/kg i.p. QW×4): (30%) | Mean tumor volume [2, 8]: 892 ± 86** mm^3 | tumor growth inhibition rate (TGI) [2, 8]: (33%) | Mean tumor volume ([2]; D42, DDP 4 mg/kg i.p. QW×4): 1110 ± 119 mm^3 | tumor growth inhibition rate (TGI) ([2]; D42, DDP 4 mg/kg i.p. QW×4): (23%) | Mean tumor volume [2, 9]: 1099 ± 85* mm^3 | tumor growth inhibition rate (TGI) [2, 9]: (24%) | Mean tumor volume ([2]; D46, DDP 4 mg/kg i.p. QW×4): 1333 ± 176 mm^3 | tumor growth inhibition rate (TGI) ([2]; D46, DDP 4 mg/kg i.p. QW×4): (20%) | Mean tumor volume [2, 10]: 1236 ± 32* mm^3 | tumor growth inhibition rate (TGI) [2, 10]: (27%) | effect on growth of the A549 transplanted tumor (summary) ([2]; DDP 4 or 5/7/7/7 mg/kg QW, R01 formulation 18 or 36 mg/kg BID, combinations 18+5/7/7/7 and 36+4): no significant effect
